The source of these data is the NIST ThermoML archive (doi:10.1021/je2002495).

Numbers after ± are expanded uncertainties.

For series [1] the following is noted: Liquid; for mass density: 298.15 K, 101.33 kPa, Pycnometric method.
The nature of series [2]: excess molar enthalpy (molar enthalpy of mixing); xn = mol fraction of the nth substance listed. To be noted: 298.15 K, 101 kPa, Liquid, Calvet calorimetry.

As a reminder, the mass density is the mass of a sample divided by its volume. For the molecule `c1ccncc1` [pyridine], in series [1], the mass density was determined as 981.3 ± 0.9 kg/m3. Further, in series [1] (Distillation), the Normal boiling temperature turned out to be 114.8 ± 1.1 °C.

For the molecule `c1ccncc1` [pyridine] + O, the excess molar enthalpy in series [2] (x1 = 0.095) is -0.0945 ± 0.00574 kcal/mol; in series [2] (x1 = 0.199) it was -0.207 ± 0.0124 kcal/mol; in series [2] (x1 = 0.298), -0.261 ± 0.0158 kcal/mol; in series [2] (x1 = 0.403), -0.294 ± 0.0177 kcal/mol; in series [2] (x1 = 0.505) it was -0.306 ± 0.0184 kcal/mol; in series [2] (x1 = 0.601), -0.295 ± 0.0179 kcal/mol. In addition, the excess molar enthalpy is -0.27 ± 0.0163 kcal/mol in series [2] (x1 = 0.703), -0.208 ± 0.0127 kcal/mol in series [2] (x1 = 0.807) and -0.0813 ± 0.00502 kcal/mol in series [2] (x1 = 0.904).

For `O` [water], in series [1], the mass density is reported as 996.5 ± 0.9 kg/m3.
